Assay results as given in PMC12250347, “Calcium-dependent pathway as a primary cause of hypoxic RGC damage in monkey retinal explants” (PLOS One, 2025).
“Also recorded” adds a separate entry of the source.

How the values were obtained:
[1] = test system: RGCs in monkey retinal explants; test: PI staining and RGC counting in retinal explants under hypoxia/reoxygenation; format: cell-based, rhesus macaques (Macaca mulatta)
Description: Globes were obtained from rhesus macaques (Macaca mulatta) at 1–7 years of age from the Oregon National Primate Research Center (Beaverton, OR, USA). The wide range of ages was unavoidable because they became available from experiments that were unrelated to the present studies. These eyes were acceptable for the purpose of our experiments. The eyes were dissected within 5 hr after death, and excised eyes were soaked in cold Hanks’ balanced salt solution (HBSS; Corning, NY, USA) or Dulbecco’s phosphate-buffered saline (DPBS; Corning). Experimental animals were handled in accordance with the Research in Vision and Ophthalmology Statement for the Use of Animals in Ophthalmic and Vision Research and with the Guiding Principles in the Care and Use of Animals (Department of Health Education and Welfare Publication National Institutes of Health 80−23).
(§1) Retina explant culture was performed as described in our previous report, except for the induction of hypoxia. Briefly, a hypoxic chamber (Coy Laboratory Products, Grass Lake, MI, USA) was controlled at 0.3% oxygen with a 95% N2/5% CO2 gas mixture. Retinas were dissected into fan-shaped explants with 6 or 7 petals (> 5 mm) in HBSS. Each explant was placed with the RGC side facing up on a Millicell organotypic standing insert (0.4 μm, 30 mm diameter, MilliporeSigma) in six-well, culture plates. They were cultured for 2 hr at 37°C under 95% N2/5% CO2 in Neurobasal-A medium supplemented with B27, N2 supplements, 2 mM L-glutamine (Thermo Fisher Scientific, Waltham, MA, USA), and 100 μg/mL primocin (Invivogen, San Diego, CA, USA). Retinal explants were then chamber-cultured under hypoxic conditions for 16 hr in a culture medium with 0.5 mM glucose, under 0.3% oxygen. The retinas were then re-oxygenated for 8 hr in a culture medium with 5.5 mM glucose. Normoxic control retinas were cultured for 24 hr in a culture medium with 5.5 mM glucose. When present, calpain inhibitors (SNJ-1945, PD-151746, C2I, and ABT-957) and cathepsin inhibitors (Odanacatib and SID26681509) in 0.1% DMSO were used at the final concentration of 10 or 100 μM in the medium. BAPTA (Thermo Fisher Scientific) and BAPTA-AM (Thermo Fisher Scientific) were also used at a final concentration of 3 or 10 mM or a final concentration of 100 or 500 μM, respectively.
(§2) All inhibitors and BAPTA were treated simultaneously with hypoxia induction, and BAPTA-AM treatment was 2 hr before hypoxia induction.
To assess the disruption of membrane barrier function, propidium iodide (PI) was utilized. Following hypoxia/reoxygenation treatment, retinal explants were incubated for 20 min in a medium containing a final concentration of 2 μg/ml of PI. For quantitative analysis, the RGC marker, RNA-binding protein with multiple splicing (RBPMS) was used at a 1:100 dilution (PhosphoSolutions, Aurora, CO, USA). RBPMS-positive and PI-positive cells in the ganglion cell layer were counted in 2 images from 2 square areas (775 × 775 μm each) located 3–5 mm and 5–7 mm away from the tips of the fan-shaped retinal flat mounts. The percentage of PI-positive RGCs was calculated as [the number of PI and RBPMS-double positive cells/the number of all RBPMS-positive cells] × 100.

[2] = test system: calpain 1 activation and proteolysis of α-spectrin; test: Immunoblotting of retinal explants under hypoxia/reoxygenation; format: cell-based, rhesus macaques (Macaca mulatta); conditions: H16R8
Method: as §1, §2
Each retinal explant was sonicated in RIPA Lysis and Extraction Buffer (Thermo Fisher Scientific), with protease inhibitors cocktail (Complete Mini-EDTA-free; MilliporeSigma). Protein concentrations in lysates were measured by BCA assay (Pierce BCA Protein Assay Kit, Thermo Fisher Scientific) using bovine serum albumin as a standard. For immunoblotting, 5 μg of each sample was loaded and run on 4% to 12% gradient or 10% SDS-PAGE gels (NuPAGE Bis-Tris Protein Gels, Thermo Fisher Scientific) with 2-(N-morpholino)ethanesulfonic acid buffer or 3-(N-morpholino) propanesulfonic acid buffer (Thermo Fisher Scientific). Proteins were then electrotransferred to a polyvinylidene fluoride membrane (MilliporeSigma) at 100 V for 60 min or 1.5 hr. Membranes were then blocked with 5% skim milk in Tris-buffer saline (Bio-Rad Laboratories, Hercules, CA, USA) containing 0.05% Tween 20. Each membrane was probed with primary antibodies against α-spectrin (1:2000 dilution, Enzo Life Sciences, Farmingdale, NY, USA), SBDP150 (1:1000 dilution, Senju Pharmaceutical), calpain 1 (1:1000 dilution, Thermo Fisher Scientific), calpain 2 (1:500, GeneTex, Irvine, CA, USA), cathepsin K (1:500 dilution, Abcam), and β-actin (1:1000 dilution, Merck). For calpain 1, immunoreactivity was visualized using a secondary antibody conjugated to alkaline phosphatase and the AP Conjugate Substrate Kit (Bio-Rad Laboratories). For other proteins, immunoreactivities were visualized using secondary antibodies conjugated with rabbit (Santa Cruz Biotechnology) or mouse horseradish peroxidase enzyme (Cytiva, Wilmington, DE, USA) and ECL Plus detection reagents (Cytiva). Images of the membranes were captured with FluorChem FC2 imager (Cell Biosciences, Santa Clara, CA, USA). The conversion of pro-cathepsin K (38 kDa) to its mature form (27 kDa) was used as an indicator of cathepsin K activation.

[3] = 16 hr hypoxia/8 hr reoxygenation (H16R8), cathepsin inhibitor at 10 or 100 µM
[4] = cathepsin inhibitor at 10 or 100 µM

Row | Structure (SMILES) | Effect on percentage of PI-positive RGCs [1, 3] | Effect on activation of calpain 1 and proteolysis of α-spectrin (immunoblot) [2, 4] | Effect on percentage of PI-positive RGCs ([1]; H16R8, calpain inhibitor at 100 µM) | Effect on activation of calpain 1 and proteolysis of α-spectrin (immunoblot) ([2]; calpain inhibitors (SNJ-1945 100 µM))
1 | CC(C)(F)C[C@H](N[C@@H](c1ccc(-c2ccc(S(C)(=O)=O)cc2)cc1)C(F)(F)F)C(=O)NC1(C#N)CC1 [Odanacatib] | did not reduce | did not mitigate | – | –
2 | CCc1ccccc1NC(=O)CSC(=O)NNC(=O)[C@H](Cc1c[nH]c2ccccc12)NC(=O)OC(C)(C)C [SID26681509] | did not reduce | did not mitigate | – | –
3 | COCCOCCOC(=O)N[C@@H](CC(C)C)C(=O)N[C@@H](Cc1ccccc1)C(=O)C(=O)NC1CC1 [SNJ-1945] | – | – | significantly decreased; also recorded: demonstrated efficacy in reducing PI-positive RGCs | effectively ameliorated; also recorded: inhibited the autolytic activation of calpain 1; also recorded: nearly completely inhibited calpain-induced proteolysis
